Measurements: US20250213563A1, “SUBSTITUTED PYRIMIDIN-4(3H)-ONES FOR USE IN TREATING CANCER” (NAVIRE PHARMA, INC., priority 2021, published 2025)

Assays:
[1] = test system: panel of 73 receptors and ion channels and 12 additional enzymes; assay: Eurofins Cerep off-target panel; conditions: 10 μM
Procedure: In addition to the kinase and phosphatase screens, Compound (10b) (10 μM) was tested against a panel of 73 receptors and ion channels and 12 additional enzymes using the Eurofins Cerep platform. In this screen, inhibition or stimulation of >50% is considered to be a significant effect.

[2] = Phase 1/1B first-in-human study, safety and PK (Cohorts 1-5); type: in vivo; design: Cmax/D / AUC/D: unit not given beside the values; conditions: for AUC/D: calculated using AUClast; for AUC(0-t) / Cmax / Tmax / half-life: human, plasma
From the text: The initial results were from Cohorts 1-5 of the Phase 1/1B First-in-Human Study of Example 6.
No safety findings impacting the risk or benefit of compound (10b) reported in the 19 patients dosed. Nine (9) treatment-emergent serious adverse events (SAEs) were reported in 7 patients, none of which were deemed related to the treatment with compound (10b).

[3] = test system: HCC827 cell line-derived xenograft (CDX) model; assay: Monotherapy anti-tumor activity, HCC827 CDX model; type: in vivo; conditions: for tumor growth inhibition (TGI): day 1 to day 28
Procedure: An in vivo efficacy study was conducted to evaluate the monotherapy anti-tumor activity of Compound (10b) in female BALB/c nude mice bearing the non-small cell lung cancer (NSCLC) HCC827 cell line-derived xenograft (CDX) model, which harbors an EGFR exon 19 deletion (EGFR^ex19del) and EGFR amplification (EGFRamp). Mice (n=10 per group) were dosed daily orally with the indicated levels of Compound (10b) from day 1 to day 28, and a dose dependent reduction in tumor volume was observed. […] All groups dosed QD, PO Two-way mixed-effects ANOVA: *p<0.0001 vs vehicle.
In vivo efficacy studies were conducted to evaluate the monotherapy anti-tumor activity of Compound (10b) across a panel of cell line-derived xenograft (CDX) models. […] Significant anti-tumor efficacy was also observed in two CDX models with acquired resistance to EGFR inhibitors.

[4] = Single-dose pharmacokinetics, Sprague Dawley rat; type: in vivo, male); conditions: for AUC(0-t): read-out: AUC0→24
Procedure: The pharmacokinetic (PK) parameters of Compound (10b) (freebase) were determined following single intravenous (IV) and oral (PO) administration in female CD-1 mouse, female C57BL/6 mouse (PO only), male Sprague Dawley rat, male Beagle dog, and male Cynomolgus monkey. Additional evaluation of the PK properties of Compound (10b) was obtained following single dose PO administration in female CD-1 mouse, male Sprague Dawley rat and male Beagle dog over a dose range spanning 10 to 300 mg/kg (mouse and rat) and 1 to 100 mg/kg (dog). The intravenous dose solutions were prepared in 20% DMSO-60% PEG400-20% water and the oral dose solutions as suspensions in 0.5% methylcellulose in water, unless otherwise noted. Plasma concentration profiles were generated from serial sampling in individual animals up to 24 hours post dose, except for the studies in mice where composite sampling methods were used (i.e. 3 sampling times per mouse; 9 mice per group). […] Exposures increased with increasing dose level across species, in a dose-proportional manner in mouse and dog, and in a greater than dose-proportional manner in rat (80× increase in AUC with a 30× increase in dosage).

[5] = test system: NCI-H358; assay: DUSP6 mRNA levels (qPCR); type: cell-based; conditions: Homo sapiens; NCI-H358, KRAS^G12C
Procedure: (§1) The potency of Compound (10b) in a panel of human tumor cell lines with active MAPK signaling was assessed. Cell viability in a 3D culture system was assessed by measuring CellTiter-Glo (CTG) luminescence following 8 days of treatment with nine concentrations of Compound (10b). MAPK pathway signaling was assessed by measuring pERK protein levels and DUSP6 mRNA levels by homogeneous time resolved fluorescence (HTRF) and quantitative polymerase chain reaction (qPCR), respectively. […] These viability effects correlated with pERK inhibition (Table 2, FIG. 6B) and DUSP6 inhibition (FIG. 6C).

[6] = test system: KYSE-520; assay: DUSP6 mRNA levels (qPCR); type: cell-based; conditions: Homo sapiens; KYSE-520, EGFR^amp
Procedure: as §1

[7] = 250 mg QD, C1D1, N=2 (1 subject excluded)
[8] = oral, 80 mg, 80 mg QD, C1D1, N=1
[9] = oral, 80 mg, 80 mg QD, C2D1, N=1
[10] = oral, 150 mg, 150 mg QD, C1D1, N=3
[11] = oral, 150 mg, 150 mg QD, C2D1, N=3
[12] = oral, 250 mg, 250 mg QD, C1D1, N=2 (1 subject excluded)
[13] = oral, 250 mg, 250 mg QD, C2D1, N=1
[14] = oral, 400 mg, 400 mg QD, C1D1, N=5
[15] = oral, 400 mg, 400 mg QD, C2D1, N=3
[16] = oral, 550 mg, 550 mg QD, C1D1, N=6
[17] = male, Sprague Dawley, rat, plasma, IV 0.3 mg/kg, free base
[18] = male, Sprague Dawley, rat, plasma, oral 10 mg/kg, free base

Compound: Cc1c(N2CCC3(CC2)CO[C@@H](C)[C@H]3N)nc(C)n(-c2cccc(Cl)c2Cl)c1=O (atropisomer, axis not shown; (Ra)) [Compound (10b), 6-((3S,4S)-4-amino-3-methyl-2-oxa-8-azaspiro[4.5]decan-8-yl)-3-(Ra)-(2,3-dichlorophenyl)-2,5-dimethylpyrimidin-4(3H)-one]
- inhibition or stimulation of >50% [1]: No effects of this magnitude were observed
- Cmax/D ([2]; 80 mg QD, C1D1, N=1): 5.06
- AUC/D ([2]; 80 mg QD, C1D1, N=1): 61.1
- P/T Ratio ([2]; 80 mg QD, C2D1, N=1): 6.82
- Cmax/D ([2]; 150 mg QD, C1D1, N=3): 4.34
- AUC/D ([2]; 150 mg QD, C1D1, N=3): 64.3
- P/T Ratio ([2]; 150 mg QD, C2D1, N=3): 3.19
- Cmax/D [2, 7]: 3.19
- AUC/D [2, 7]: 42.4
- P/T Ratio ([2]; 250 mg QD, C2D1, N=1): 2.81
- Cmax/D ([2]; 400 mg QD, C1D1, N=5): 3.85
- AUC/D ([2]; 400 mg QD, C1D1, N=5): 47.0
- P/T Ratio ([2]; 400 mg QD, C2D1, N=3): 3.42
- Cmax/D ([2]; 550 mg QD, C1D1, N=6): 4.63
- AUC/D ([2]; 550 mg QD, C1D1, N=6): 68.6
- Number of patients (n = 19) with TEAE: Constipation ([2]; Cohorts 1-5): 1
- Number of patients (n = 19) with TEAE: Diarrhea ([2]; Cohorts 1-5): 5
- Number of patients (n = 19) with TEAE: Edema ([2]; Cohorts 1-5): 4
- Number of patients (n = 19) with TEAE: LFT increases ([2]; Cohorts 1-5): 2
- Number of patients (n = 19) with TEAE: LVEF decrease ([2]; Cohorts 1-5): 1
- Number of patients (n = 19) with TEAE: Nausea/vomiting ([2]; Cohorts 1-5): 4
- Number of patients (n = 19) with TEAE: Rash ([2]; Cohorts 1-5): 2
- adverse events leading to study discontinuation ([2]; Cohorts 1-5): No adverse events (AEs) led to study discontinuation
- dose-limiting toxicity (DLTs) ([2]; Cohorts 1-5): no dose-limiting toxicity and None
- number of patients with treatment-emergent SAEs ([2]; Cohorts 1-5, 19 patients dosed): 7
- number of treatment-emergent serious adverse events (SAEs) ([2]; Cohorts 1-5, 19 patients dosed): 9
- treatment-emergent SAEs deemed related to the treatment ([2]; Cohorts 1-5, 19 patients dosed): none
- tolerability ([2]; Cohorts 1-5: 80, 150, 250, 400, 550 mg once daily, 19 patients): well tolerated
- AUC(0-t) [2, 8]: 4890 ng·h/mL
- Cmax [2, 8]: 405 ng/mL
- Tmax [2, 8]: 2 h
- AUC(0-t) [2, 9]: 6290 ng·h/mL
- Cmax [2, 9]: 622 ng/mL
- Tmax [2, 9]: 1 h
- half-life ([2]; oral, 80 mg, 80 mg QD, C2D1, N=1, read-out: t1/2 (converted)): 600 min
- AUC(0-t) [2, 10]: 9650 ng·h/mL
- Cmax [2, 10]: 651 ng/mL
- Tmax [2, 10]: 2 h
- half-life ([2]; oral, 150 mg, 150 mg QD, C2D1, N = 1, read-out: t1/2 (converted)): 606 min
- AUC(0-t) [2, 11]: 18200 ng·h/mL
- Cmax [2, 11]: 1120 ng/mL
- Tmax [2, 11]: 3.33 h
- half-life ([2]; oral, 250 mg, 250 mg QD, C1D1, N = 1, read-out: t1/2 (converted)): 566 min
- AUC(0-t) [2, 12]: 10600 ng·h/mL
- Tmax [2, 12]: 3 h
- Cmax ([2]; oral, 250 mg, 250 mg QD, C1D1, N=2 (1 subject with active gastritis excluded)): 797 ng/mL
- AUC(0-t) [2, 13]: 21600 ng·h/mL
- Cmax [2, 13]: 1380 ng/mL
- Tmax [2, 13]: 2 h
- half-life ([2]; oral, 400 mg, 400 mg QD, C1D1, N = 1, read-out: t1/2 (converted)): 606 min
- AUC(0-t) [2, 14]: 18800 ng·h/mL
- Cmax [2, 14]: 1540 ng/mL
- Tmax [2, 14]: 3 h
- half-life ([2]; oral, 400 mg, 400 mg QD, C2D1, N = 1, in parentheses: interpret with caution (large extrapolated AUC), read-out: t1/2 (converted)): 738 min
- AUC(0-t) [2, 15]: 32000 ng·h/mL
- Cmax [2, 15]: 2270 ng/mL
- Tmax [2, 15]: 3 h
- AUC(0-t) [2, 16]: 37700 ng·h/mL
- Cmax [2, 16]: 2550 ng/mL
- Tmax [2, 16]: 2.67 h
- half-life ([2]; oral, read-out: Human Half life): 600 to 960 min
- half-life ([2]; po, 80 mg, 80 mg QD, C1D1, N=1, in parentheses: interpret with caution (large extrapolated AUC), read-out: t1/2 (converted)): 894 min
- half-life ([2]; po, 150 mg, 150 mg QD, C1D1, N=3, in parentheses: interpret with caution (large extrapolated AUC), read-out: t1/2 (converted)): 936 min
- half-life ([2]; po, 550 mg, 550 mg QD, C1D1, N=6, in parentheses: interpret with caution (large extrapolated AUC), read-out: t1/2 (converted)): 810 min
- tumor growth inhibition (TGI) ([3]; 3 mg/kg QD PO): 41%
- tumor growth inhibition (TGI) ([3]; 10 mg/kg QD PO): 84%
- tumor growth inhibition (TGI) ([3]; 30 mg/kg QD PO): 98%
- mean tumor regression ([3]; 100 mg/kg QD PO): 60%
- impact of treatment on body weight ([3]; 3-100 mg/kg QD PO): no impact
- tolerability ([3]; 3-100 mg/kg QD PO): well tolerated
- ED90 ([3]; QD PO): 10 mg/kg
- half-life [4, 17]: 551 min
- AUC(0-t) [4, 17]: 3.27 µM·h
- clearance ([4]; male, Sprague Dawley, rat, plasma, IV 0.3 mg/kg, free base, read-out: Clp (converted)): 10.2 mL/min/kg
- Vd ([4]; male, Sprague Dawley, rat, plasma, IV 0.3 mg/kg, free base, read-out: Vdss): 6.05 L/kg
- Cmax [4, 18]: 3.05 µM
- AUC(0-t) [4, 18]: 19.1 µM·h
- Tmax ([4]; male, Sprague Dawley, rat, plasma, oral 10 mg/kg, free base, read-out: Tmax (mean)): 55.2 min
- Tmax ([4]; male, Sprague Dawley, rat, plasma, oral 300 mg/kg, read-out: mean Tmax): ≤ 480 min
- F ([4]; oral 10 mg/kg, free base): 51.2%
- increase in AUC ([4]; oral, with a 30× increase in dosage (10 to 300 mg/kg)): 80 ×
- IC50 [5]: 820 nM
- IC50 [6]: 60 nM
